The target in one assay is T1, TYK2 JH2 (Homo sapiens, UniProt P29597).
T1 construct: purchased DiscoverX (KINOMEscan KdELECT service); host or cells: E. coli BL21-derived (T7 phage display) or HEK-293
The experiment in a line: TYK2 JH2 binding assay (KINOMEscan KdELECT competitive binding). The settings on record: TYK2 JH2 domain, DiscoverX KINOMEscan KdELECT (Assay A); read-out: Biochemical TYK2_DiscoverX_JH2_BND_Kd. The essentials: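 The assay measures displacement of DNA- or phage-tagged TYK2 pseudokinase domain from an affinity resin; compound binding lowers the amount captured, read by qPCR. Incubation lasts 1 h at room temperature.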

Assay [1] deals with JAK1/TYK2 pSTAT5 (Tyr694/699) in THP-1 cell line. The experiment in a line: IFNa-stimulated JAK1/TYK2 pSTAT5 (Tyr694/699) inhibition cellular assay, AlphaLISA. In kind it is cell-based. The conditions noted are these: Homo sapiens; THP-1 cells, IFNa-stimulated, AlphaLISA (Assay B); read-out: Cellular_THP1_IFNa-pSTATS_TYK2. Put shortly: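 THP-1 cells (2e4/well) in HBSS preincubated 1 h at 37° C. with compound (final 10000–0.04 nM, 8 points, 6-fold), then stimulated with IFNa (100 ng/mL stock) for 30 min before lysis. pSTAT5 (Tyr694/699) read by AlphaLISA at 615 nm; IC50 from four-parameter logistic fit with bottom fixed at 0 and Hill slope at −1.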
Background: Bead proximity is the source of the signal in Alpha formats.

SMILES strings stand for the structures.

T1 sequence (P29597 589-875 limits assumed): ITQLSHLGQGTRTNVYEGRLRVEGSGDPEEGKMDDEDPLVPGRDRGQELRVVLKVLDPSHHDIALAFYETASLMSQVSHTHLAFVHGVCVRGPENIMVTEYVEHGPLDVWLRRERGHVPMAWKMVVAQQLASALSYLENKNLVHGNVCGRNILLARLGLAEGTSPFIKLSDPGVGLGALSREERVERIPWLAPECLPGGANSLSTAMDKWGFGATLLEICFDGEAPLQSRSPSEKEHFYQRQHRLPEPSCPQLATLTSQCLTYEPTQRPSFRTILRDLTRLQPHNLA

For the compound `CNc1ncc(-c2nc3cc(NC(C)=O)ccc3o2)c2cc(NC(=O)C3CC3)ncc12` [Example 295, N-(5-(5-acetamidobenzo[d]oxazol-2-yl)-8-(methylamino)-2,7-naphthyridin-3-yl)cyclopropanecarboxamide], the Kd on TYK2 JH2 is not above 100 nM. In addition, in assay [1], the IC50 is not above 500 nM.

For the compound `CNc1ncc(-c2nc3cc(N4CC5(COC5)C4)ccc3o2)c2cc(NC(=O)C3CC3)ncc12` [Example 296, N-(5-(5-(2-oxa-6-azaspiro[3.3]heptan-6-yl)benzo[d]oxazol-2-y1)-8-(methylamino)-2,7-naphthyridin-3-yl)cyclopropanecarboxamide], on TYK2 JH2, the Kd was not above 100 nM. Moreover, the IC50 in assay [1] was not above 500 nM.

`CNc1ncc(-c2nc3cc(N(C)C(C)=O)ccc3o2)c2cc(NC(=O)C3CC3)ncc12` [Example 297, N-(5-(5-(N-methylacetamido)benzo[d]oxazol-2-yl)-8-(methylamino)-2,7-naphthyridin-3-y1)cyclopropanecarboxamide]: the Kd at TYK2 JH2 is not above 100 nM. The IC50 in assay [1] was not above 500 nM.

`CNc1ncc(-c2nc3cc(N4C[C@@H]5C[C@H]4CO5)ccc3o2)c2cc(NC(=O)C3CC3)ncc12` [Example 298, N-(5-(5-((15,4S)-2-oxa-5-azabicyclo[2.2.1]heptan-5-yl)benzo[d]oxazol-2-y1)-8-(methylamino)-2,7-naphthyridin-3-yl)cyclopropanecarboxamide]: at TYK2 JH2, the Kd is not above 100 nM. Also, the IC50 in assay [1] was not above 500 nM.

With `CNc1ncc(-c2nc3cc(N4C[C@H]5C[C@@H]4CO5)ccc3o2)c2cc(NC(=O)C3CC3)ncc12` [Example 299, N-(5-(5-((1R,4R)-2-oxa-5-azabicyclo[2.2.1]heptan-5-yl)benzo[d]oxazol-2-y1)-8-(methylamino)-2,7-naphthyridin-3-yl)cyclopropanecarboxamide], on TYK2 JH2, the Kd was not above 100 nM. Moreover, in assay [1], the IC50 is not above 500 nM.

For the compound `CNc1ncc(-c2nc3cc(N4CC5(CN(C)C5)C4)ccc3o2)c2cc(NC(=O)C3CC3)ncc12` [Example 300, N-(5-(5-(6-methyl-2,6-diazaspiro[3.3]heptan-2-yl)benzo[d]oxazol-2-yl)-8-(methylamino)-2,7-naphthyridin-3-yl)cyclopropanecarboxamide], the Kd at TYK2 JH2 was not above 100 nM. For the same compound, in assay [1], the IC50 was not above 500 nM.

As for `CNc1ncc(-c2nc3cc(N4CCC(F)(F)CC4)ccc3o2)c2cc(NC(=O)C3CC3)ncc12` [Example 301, N-(5-(5-(4,4-difluoropiperidin-1-yl)benzo[d]oxazol-2-y1)-8-(methylamino)-2,7-naphthyridin-3-yl)cyclopropanecarboxamide], the Kd on TYK2 JH2 is not above 100 nM. For the same compound, the IC50 in assay [1] was not above 500 nM.

On to `CNc1ncc(-c2nc3cc(N4CCO[C@H](C)C4)ccc3o2)c2cc(NC(=O)C3CC3)ncc12` [Example 302, (R)-N-(8-(methylamino)-5-(5-(2-methylmorpholino)benzo[d]oxazol-2-yl)-2,7-naphthyridin-3-yl)cyclopropanecarboxamide], for which, at TYK2 JH2, the Kd is not above 100 nM. Also, in assay [1], the IC50 is not above 500 nM.

As to `CNc1ncc(-c2nc3cc(N4CCS(=O)(=O)CC4)ccc3o2)c2cc(NC(=O)C3CC3)ncc12` [Example 303, N-(5-(5-(1,1-dioxidothiomorpholino)benzo[d]oxazol-2-yl)-8-(methylamino)-2,7-naphthyridin-3-yl)cyclopropanecarboxamide], the Kd on TYK2 JH2 is not above 100 nM. For the same compound, in assay [1], the IC50 was not above 500 nM.

As for `CNc1ncc(-c2nc3cc(N4CCN(C)CC4)ccc3o2)c2cc(NC(=O)C3CC3)ncc12` [Example 304, N-(8-(methylamino)-5-(5-(4-methylpiperazin-1-yI)benzo[d]oxazol-2-y1)-2,7-naphthyridin-3-yl)cyclopropanecarboxamide], the Kd on TYK2 JH2 is not above 100 nM. Further, the IC50 in assay [1] was not above 500 nM.

Regarding `CNc1ncc(-c2nc3cc(N4CC5CCC(C4)O5)ccc3o2)c2cc(NC(=O)C3CC3)ncc12` [Example 305], the Kd at TYK2 JH2 is not above 100 nM. Further, the IC50 in assay [1] is not above 500 nM.

As for `CNc1ncc(-c2nc3cc(N4C[C@H]5COC[C@H]5C4)ccc3o2)c2cc(NC(=O)C3CC3)ncc12` [Example 306, N-(8-(methylamino)-5-(5-((3aR,6a.S)-tetrahydro-1H-furo[3,4-c]pyrrol-5(3H)-yl)benzo[d]oxazol-2-y1)-2,7-naphthyridin-3-yl)cyclopropanecarboxamide], the Kd at TYK2 JH2 is not above 100 nM. In addition, the IC50 in assay [1] was not above 500 nM.

Consider `CNc1ncc(-c2nc3cc(N4CCN(c5ccncc5)CC4)ccc3o2)c2cc(NC(=O)C3CC3)ncc12` [Example 307, N-(8-(methylamino)-5-(5-(4-(pyridin-4-yl)piperazin-1-yl)benzo[d]oxazol-2-yl)-2,7-naphthyridin-3-yl)cyclopropanecarboxamide], for which the Kd at TYK2 JH2 is not above 100 nM. In addition, in assay [1], the IC50 was not above 500 nM.

`CNc1ncc(-c2nc3cc(N4CCOC[C@@H]4C)ccc3o2)c2cc(NC(=O)C3CC3)ncc12` [Example 308, (S)-N-(8-(methylamino)-5-(5-(3-methylmorpholino)benzo[d]oxazol-2-yl)-2,7-naphthyridin-3-yl)cyclopropanecarboxamide]: the Kd at TYK2 JH2 was not above 100 nM. In addition, the IC50 in assay [1] was not above 500 nM.

With `CNc1ncc(-c2nc3cc(N4CCOC[C@H]4C)ccc3o2)c2cc(NC(=O)C3CC3)ncc12` [Example 309, (R)-N-(8-(methylamino)-5-(5-(3-methylmorpholino)benzo[d]oxazol-2-yl)-2,7-naphthyridin-3-yl)cyclopropanecarboxamide], on TYK2 JH2, the Kd is not above 100 nM. The IC50 in assay [1] is not above 500 nM.

Consider `CNc1ncc(-c2nc3cc(N4CCC5(CC4)COC5)ccc3o2)c2cc(NC(=O)C3CC3)ncc12` [Example 310, N-(5-(5-(2-oxa-7-azaspiro[3.5]nonan-7-yl)benzo[d]oxazol-2-y1)~8-(methylamino)-2,7-naphthyridin-3-yl)cyclopropanecarboxamide], for which the Kd on TYK2 JH2 is not above 100 nM. In addition, the IC50 in assay [1] is not above 500 nM.

Consider `CNc1ncc(-c2nc3cc(N4C5CCC4COC5)ccc3o2)c2cc(NC(=O)C3CC3)ncc12` [Example 311, N-(5-(5-(3-oxa-8-azabicyclo[3.2.1]octan-8-yl)benzo[d]oxazol-2-y1)-8-(methylamino)-2,7-naphthyridin-3-yl)cyclopropanecarboxamide], for which the Kd on TYK2 JH2 is not above 100 nM. Further, the IC50 in assay [1] was not above 500 nM.

Consider `CNc1ncc(-c2nc3cc(OC4(C)COC4)ccc3o2)c2cc(NC(=O)C3CC3)ncc12` [Example 312, N-(8-(methylamino)-5-(5-((3-methyloxetan-3-yl)oxy)benzo[d]oxazol-2-yl)-2,7-naphthyridin-3-yl)cyclopropanecarboxamide], for which, at TYK2 JH2, the Kd is not above 100 nM. In assay [1], the IC50 was not above 500 nM.

With `CNc1ncc(-c2nc3cc(N4CCCC5(CCO5)C4)ccc3o2)c2cc(NC(=O)C3CC3)ncc12` (centres unmarked) [Example 313, N-(5-(5-(1-oxa-6-azaspiro[3.5]nonan-6-yl)benzo[d]oxazol-2-yl)-8-(methylamino)-2,7-naphthyridin-3-yl)cyclopropanecarboxamide], on TYK2 JH2, the Kd was not above 100 nM. The IC50 in assay [1] is not above 500 nM.

Turning to `CNc1ncc(-c2nc3cc(N4CCN(C5COC5)CC4)ccc3o2)c2cc(NC(=O)C3CC3)ncc12` [Example 314, N-(8-(methylamino)-5-(5-(4-(oxetan-3-yl)piperazin-1-yl)benzo[d]oxazol-2-yl)-2,7-naphthyridin-3-yl)cyclopropanecarboxamide], on TYK2 JH2, the Kd was not above 100 nM. Also, the IC50 in assay [1] was not above 500 nM.

Consider `CNc1ncc(-c2nc3cc(N4C[C@@H](C)O[C@@H](C)C4)ccc3o2)c2cc(NC(=O)C3CC3)ncc12` [Example 315, N-(5-(5-((2R,6S)~2,6-dimethylmorpholino)benzo[d]oxazol-2-yl)-8-(methylamino)-2,7-naphthyridin-3-yl)cyclopropanecarboxamide], for which, at TYK2 JH2, the Kd is not above 100 nM. The IC50 in assay [1] was not above 500 nM.

For the compound `CNc1ncc(-c2nc3cc(N4CCOC(C)(C)C4)ccc3o2)c2cc(NC(=O)C3CC3)ncc12` [Example 317, N-(5-(5-(2,2-dimethylmorpholino)benzo[d]oxazol-2-yl)-8-(methylamino)-2,7-naphthyridin-3-yl)cyclopropanecarboxamide], at TYK2 JH2, the Kd was not above 100 nM. The IC50 in assay [1] is not above 500 nM.

On to `CNc1ncc(-c2nc3cc(N4CCCOCC4)ccc3o2)c2cc(NC(=O)C3CC3)ncc12` [Example 318, N-(5-(5-(1,4-oxazepan-4-yl)benzo[d]oxazol-2-yl)-8-(methylamino)-2,7-naphthyridin-3-yl)cyclopropanecarboxamide], for which, on TYK2 JH2, the Kd was not above 100 nM. Moreover, the IC50 in assay [1] was not above 500 nM.

As for `CNc1ncc(-c2nc3cc(N4CC(CC(F)F)C4)ccc3o2)c2cc(NC(=O)C3CC3)ncc12` [Example 319, N-(5-(5-(3-(2,2-difluoroethyl)azetidin-1-yl)benzo[d]oxazol-2-yl)-8-(methylamino)-2,7-naphthyridin-3-yl)cyclopropanecarboxamide], the Kd on TYK2 JH2 is not above 100 nM. For the same compound, in assay [1], the IC50 was not above 500 nM.

Turning to `CNc1ncc(-c2nc3cc(N4CC[C@H]4C#N)ccc3o2)c2cc(NC(=O)C3CC3)ncc12` [Example 320, (S)—N-(5-(5-(2-cyanoazetidin-1-yl)benzo[d]oxazol-2-yl)-8-(methylamino)-2,7-naphthyridin-3-yl)cyclopropanecarboxamide], at TYK2 JH2, the Kd was not above 100 nM. For the same compound, the IC50 in assay [1] is not above 500 nM.
